# Results reported in patent US20220162167A1, “SUBSTITUTED BICYCLIC AND TETRACYCLIC QUINONES AND USE THEREOF AS ANTI-CANCER AGENTS” (THE REGENTS OF THE UNIVERSITY OF MICHIGAN, priority 2019, published 2022).
# Key:
# Type in all cases: cell-based
# MALME-3M = assay: NCI60 growth inhibition, MALME-3M; conditions: Melanoma
# Procedure, shortened: (§1)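 Read-out: growth inhibition in the NCI60 screen of 60 cancer cell lines.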
# M14 = assay: NCI60 growth inhibition, M14; conditions: Melanoma
# Procedure, shortened: as §1
# MDA-MB-435 = assay: NCI60 growth inhibition, MDA-MB-435; conditions: Melanoma
# Procedure, shortened: as §1
# SK-MEL-2 = assay: NCI60 growth inhibition, SK-MEL-2; conditions: Melanoma; further: test concentration or dose not given here
# Procedure, shortened: as §1
# SK-MEL-28 = assay: NCI60 growth inhibition, SK-MEL-28; conditions: Melanoma
# Procedure, shortened: as §1
# SK-MEL-5 = assay: NCI60 growth inhibition, SK-MEL-5; conditions: Melanoma
# Procedure, shortened: as §1
# UACC-257 = assay: NCI60 growth inhibition, UACC-257; conditions: Melanoma; further: test concentration or dose not given here
# Procedure, shortened: as §1
# UACC-62 = assay: NCI60 growth inhibition, UACC-62; conditions: Melanoma; further: test concentration or dose not given here
# Procedure, shortened: as §1
# IGROV1 = assay: NCI60 growth inhibition, IGROV1; conditions: Ovarian Cancer
# Procedure, shortened: as §1
# OVCAR-3 = assay: NCI60 growth inhibition, OVCAR-3; conditions: Ovarian Cancer
# Procedure, shortened: as §1
# OVCAR-4 = assay: NCI60 growth inhibition, OVCAR-4; conditions: Ovarian Cancer; further: test concentration or dose not given here
# Procedure, shortened: as §1
# OVCAR-5 = assay: NCI60 growth inhibition, OVCAR-5; conditions: Ovarian Cancer
# Procedure, shortened: as §1
# NCI/ADR-RES = assay: NCI60 growth inhibition, NCI/ADR-RES; conditions: Ovarian Cancer
# Procedure, shortened: as §1
# SK-OV-3 = assay: NCI60 growth inhibition, SK-OV-3; conditions: Ovarian Cancer
# Procedure, shortened: as §1
# 786-0 = assay: NCI60 growth inhibition, 786-0; conditions: Renal Cancer
# Procedure, shortened: as §1
# A498 = assay: NCI60 growth inhibition, A498; conditions: Renal Cancer; further: test concentration or dose not given here
# Procedure, shortened: as §1
# ACHN = assay: NCI60 growth inhibition, ACHN; conditions: Renal Cancer
# Procedure, shortened: as §1
# CAKI-1 = assay: NCI60 growth inhibition, CAKI-1; conditions: Renal Cancer; further: test concentration or dose not given here
# Procedure, shortened: as §1
# RXF 393 = assay: NCI60 growth inhibition, RXF 393; conditions: Renal Cancer
# Protocol: (§2) Representative compounds were tested in 60 cell lines (NCI60) at the National Cancer Institute, Developmental Therapeutics Program.
# (§3) Representative compounds were tested in a panel of 60 cancer cells (NCI 60) at the National Cancer Institute. Growth inhibition are shown in table 2, table 3, table 4, table 5, and FIG. 1, FIG. 2, FIG. 3, FIG. 4, FIG. 5.
# SN12C = assay: NCI60 growth inhibition, SN12C; conditions: Renal Cancer
# Procedure, shortened: as §1
# TK-10 = assay: NCI60 growth inhibition, TK-10; conditions: Renal Cancer
# Procedure, shortened: as §1
# UO-31 = assay: NCI60 growth inhibition, UO-31; conditions: Renal Cancer
# Procedure, shortened: as §1
# PC-3 = assay: NCI60 growth inhibition, PC-3; conditions: Prostate Cancer
# Procedure, shortened: as §1
# DU-145 = assay: NCI60 growth inhibition, DU-145; conditions: Prostate Cancer
# Procedure, shortened: as §1
# MCF7 = assay: NCI60 growth inhibition, MCF7; conditions: Breast Cancer
# Procedure, shortened: as §1
# MDA-MB-231/ATCC = assay: NCI60 growth inhibition, MDA-MB-231/ATCC; conditions: Breast Cancer
# Procedure, shortened: as §1
# HS 578T = assay: NCI60 growth inhibition, HS 578T; conditions: Breast Cancer
# Procedure, shortened: as §1
# BT-549 = assay: NCI60 growth inhibition, BT-549; conditions: Breast Cancer
# Protocol: as §2, §3
# T-47D = assay: NCI60 growth inhibition, T-47D; conditions: Breast Cancer
# Procedure, shortened: as §1
# MDA-MB-468 = assay: NCI60 growth inhibition, MDA-MB-468; conditions: Breast Cancer; further: test concentration or dose not given here
# Procedure, shortened: as §1
compound,measurement,setting,value
"CN1CCN(c2ccc3nc4c(nc3c2C(F)(F)F)C(=O)c2ncccc2C4=O)CC1 [Compound 50, 9-(4-methylpiperazin-1-yl)-10-(trifluoromethyl)pyrido[2,3-b]phenazine-5,12-dione]",Growth inhibition (% control) GIPRCNT,MALME-3M,−99.1953 % control
same,Growth inhibition (% control) GIPRCNT,M14,−89.6374 % control
same,Growth inhibition (% control) GIPRCNT,MDA-MB-435,−91.762 % control
same,Growth inhibition (% control) GIPRCNT,SK-MEL-2,−34.5495 % control
same,Growth inhibition (% control) GIPRCNT,SK-MEL-28,5.495 % control
same,Growth inhibition (% control) GIPRCNT,SK-MEL-5,−99.7024 % control
same,Growth inhibition (% control) GIPRCNT,UACC-257,−82.2969 % control
same,Growth inhibition (% control) GIPRCNT,UACC-62,−82.4675 % control
same,Growth inhibition (% control) GIPRCNT,IGROV1,−32.57 % control
same,Growth inhibition (% control) GIPRCNT,OVCAR-3,−27.9399 % control
same,Growth inhibition (% control) GIPRCNT,OVCAR-4,−91.1398 % control
same,Growth inhibition (% control) GIPRCNT,OVCAR-5,−90.4043 % control
same,Growth inhibition (% control) GIPRCNT,NCI/ADR-RES,10.14 % control
same,Growth inhibition (% control) GIPRCNT,SK-OV-3,29.68 % control
same,Growth inhibition (% control) GIPRCNT,786-0,36.69 % control
same,Growth inhibition (% control) GIPRCNT,A498,−21.1398 % control
same,Growth inhibition (% control) GIPRCNT,ACHN,−44.1558 % control
same,Growth inhibition (% control) GIPRCNT,CAKI-1,33.14 % control
same,Growth inhibition (% control) GIPRCNT,RXF 393,38.36 % control
same,Growth inhibition (% control) GIPRCNT,SN12C,−95.418 % control
same,Growth inhibition (% control) GIPRCNT,TK-10,80.29 % control
same,Growth inhibition (% control) GIPRCNT,UO-31,−19.0631 % control
same,Growth inhibition (% control) GIPRCNT,PC-3,8.007 % control
same,Growth inhibition (% control) GIPRCNT,DU-145,−85.7143 % control
same,Growth inhibition (% control) GIPRCNT,MCF7,−57.016 % control
same,Growth inhibition (% control) GIPRCNT,MDA-MB-231/ATCC,−5.992 % control
same,Growth inhibition (% control) GIPRCNT,HS 578T,−15.9764 % control
same,Growth inhibition (% control) GIPRCNT,BT-549,−97.0139 % control
same,Growth inhibition (% control) GIPRCNT,T-47D,−28.3961 % control
same,Growth inhibition (% control) GIPRCNT,MDA-MB-468,−62.4106 % control
